# Measurements taken from patent US20090143335A1, “MODIFIED ABSORPTION FORMULATION OF GABOXADOL” (H. LUNDBECK A/S, priority 2007, published 2009).
# Assays:
# [1] = Pharmacokinetics of gaboxadol in beagle dogs, IV or PO, with or without co-administered tryptophan; assay type: in vivo; conditions: dog; for bioavailability: Fa (bioavailability)
# Experimental: Prior to commencement of the studies the protocols were approved by the Animal Welfare Committee, appointed by the Danish Ministry of Justice and all animal procedures were carried out in compliance with EC Directive 86/609/EEC, the Danish law regulating experiments on animals and NIH Guidelines for the Care and Use of Laboratory Animals. 6 full-grown male beagle dogs (body weight 15.9-21.7 kg) were selected and allocated into a roman quadrant design and assigned to receive all 6 formulations of gaboxadol hydrochloride randomly during 6 weeks. The dogs were fasted 20-24 hours before the initiation of the experiment and fed again 10 hours after the administration. The gaboxadol dose was given either as an intravenous injection (1.0 ml/kg) or as an oral solution given by gavage (5.0 ml/kg) directly into the stomach using a soft tube. All dogs received 2.5 mg/kg gaboxadol. In addition to gaboxadol, the oral formulations contained 0, 2.5, 10.0, 50.0 or 150.0 mg/kg of tryptophan to ensure simultaneous co-administration of the two compounds. All solutions were adjusted to a pH of 5.2 and osmolarity was checked with a Vapro vapour pressure osmometer (model 5520, Wescor Inc. Logan, Utah, USA), the intravenous solutions were adjusted to isoosmolarity with glucose. Blood samples of 2.0 ml were taken from the vena cephalica by individual vein puncture and collected into Eppendorf tubes containing 200 IE heparin as anticoagulant. Samples were collected before administration of gaboxadol and after 5, 15, 30, 60, 90 minutes and 2, 3, 4, 6, 8 and 10 hours after gaboxadol administration. The plasma was harvested immediately by centrifugation for 15 minutes at 2200 g and 4-8° C. and stored at −80° C. until further analysis. After each day of gaboxadol dosing the animals had 6 days of washout.
# (§1) The pharmacokinetics (PK) was evaluated in WinNonlin. Plasma concentrations curves of the animals dosed intravenously were fitted to a 2-compartment model whereas the data from animals dosed orally were analysed in a non-compartment model. Statistical analysis was done in Sigma Stat.
# Gaboxadol was extracted from plasma and HBSS^+ samples by liquid extraction. 100 μl HBSS^+ (80 μl purified water were added to the 20 μl samples) or 100 μl plasma samples were mixed with 25 μl intern standard (d4-gaboxadol) and 25 μl purified water. Protein precipitation was carried out by addition of 400 μl cold acetonitrile. After centrifugation at 10,000 g in 15 minutes, 425 μl supernatant was transferred to glass tubes and evaporated to dryness under nitrogen at 45° C. The samples were re-solved in 80 μl methanol/acetonitrile (30:70), whirl mixed for 10 minutes and centrifuged in 3 minutes at 3000 rpm, before transferal to medium well plates and placed at 10° C. in the autosampler. Gaboxadol concentration in the extracted samples was subsequently quantified by hydrophilic interaction chromatography (HILIC-chromatography) followed by MS/MS detection. The LC system comprised of an Agilent 1100 series pump and degasser, a CTC Analytics interface transferred data to the computer and a Peltier Thermostat and HTC Pal autosampler handled the samples. An Asahipak amino column, (NH2P-50, 150×2 mm) from Phenomenex was used for the chromatographic separation with a mobile phase of 20.0 mM ammoniumacetat pH=4:acetonitrile (30:70) and a flow rate of 0.2 ml/min. 20 μL samples were injected onto the column, which was kept at room temperature. The total runtime was 10 minutes with the first 5 minutes of elution let to waste. The elution time of gaboxadol on the column was approximately 8 minutes. The MS/MS system used consisted of a Sciex API 4000 MS/MS detector with a Turbo Ion Spray and Turbo V source (Applied Biosystems). The detection was performed in negative ionization mode where gaboxadol (precursor 139.1 Da, product 110.1 Da) and d4-gaboxadol (precursor 143.0, product 112.2 Da) were measured by multiple-reaction-monitoring (MRM). […]
# [2] = Pharmacokinetics of gaboxadol in rats after PO dosing, with or without 5-HTP pre-incubation; assay type: in vivo, Sprague-Dawley rats; conditions: rat; for Cmax: Cmax ± S.E.M.; for Tmax: Tmax ± S.E.M.
# Experimental: as §1
# (§2) Gaboxadol was extracted from plasma and HBSS^+ samples by liquid extraction. 100 μl HBSS^+ (80 μl purified water were added to the 20 μl samples) or 100 μl plasma samples were mixed with 25 μl intern standard (d4-gaboxadol) and 25 μl purified water. Protein precipitation was carried out by addition of 400 μl cold acetonitrile. After centrifugation at 10,000 g in 15 minutes, 425 μl supernatant was transferred to glass tubes and evaporated to dryness under nitrogen at 45° C. The samples were re-solved in 80 μl methanol/acetonitrile (30:70), whirl mixed for 10 minutes and centrifuged in 3 minutes at 3000 rpm, before transferal to medium well plates and placed at 10° C. in the autosampler. Gaboxadol concentration in the extracted samples was subsequently quantified by hydrophilic interaction chromatography (HILIC-chromatography) followed by MS/MS detection. The LC system comprised of an Agilent 1100 series pump and degasser, a CTC Analytics interface transferred data to the computer and a Peltier Thermostat and HTC Pal autosampler handled the samples. An Asahipak amino column, (NH2P-50, 150×2 mm) from Phenomenex was used for the chromatographic separation with a mobile phase of 20.0 mM ammoniumacetat pH=4:acetonitrile (30:70) and a flow rate of 0.2 ml/min. 20 μL samples were injected onto the column, which was kept at room temperature. The total runtime was 10 minutes with the first 5 minutes of elution let to waste. The elution time of gaboxadol on the column was approximately 8 minutes. The MS/MS system used consisted of a Sciex API 4000 MS/MS detector with a Turbo Ion Spray and Turbo V source (Applied Biosystems). The detection was performed in negative ionization mode where gaboxadol (precursor 139.1 Da, product 110.1 Da) and d4-gaboxadol (precursor 143.0, product 112.2 Da) were measured by multiple-reaction-monitoring (MRM). The signals were linear between 0.5 and 2500.0 ng/ml and the limit of quantification by this procedure was 0.5 ng/ml. The software was from Analyst™ (Applied Biosystem, version 4.0).
# 0.05 or 0.5 mg gaboxadol as well as 0.0 or 20.0 mg 5-HTP was dissolved in purified water pr ml. at room temperature and placed on ice in ultrasound for 10 min. The formulations were adjusted to pH 4-5 and with NaOH/HCl and made isotonic by addition of mannitol. pH of all solutions was adjusted to pH above 4.0 and below 5.0, the osmolality was adjusted with mannitol to 280 mmol/kg.
# (§3) Male Sprague-Dawley rats (Charles River Laboratories, Wilmington, Mass., USA) of 220-240 gram were housed and acclimated for 7 days before entering the experiments. The rats were maintained on standard food and water until 16-20 hours prior to dosing when food was retrieved to insure complete gastric emptying before experiments were conducted. Water was available to the animals until beginning of experiment and again 2 hours after. Each animal was randomly assigned to receive either one of the intravenous or oral formulations.
# 6 parallel groups of rats (n=6) were given isotonic solutions of 0.5 or 5.0 mg/kg of gaboxadol together with saline or 200.0 mg/kg 5-HTP, by oral gavage (10.0 ml/kg). The suspensions of 5-HTP were given as a pre-incubation 30 min. prior to the gaboxadol solutions.
# (§4) Blood samples of 0.2 ml were taken from the tail vein by individual vein puncture and collected into plasma collection tubes containing 20 IE heparin. Samples were collected at 5, 15, 30, 45, 60 minutes and after 2, 3, 4, 6, 8 hours after gaboxadol administration. The plasma was harvested immediately by centrifugation for 10 min. at 3.600 g and stored at −80° C. until further analysis.
# [3] = Pharmacokinetics of gaboxadol in rats after IV dosing, with or without 5-HTP pre-incubation; assay type: in vivo, Sprague-Dawley rats; conditions: rat; for Ke ± S.E.M.: IV gaboxadol 2.5 mg/kg
# Experimental: as §1, §2, §3, §4
# 0.25 mg gaboxadol as well as 0.0 or 10.0 mg 5-HTP was dissolved in purified water pr ml. at room temperature and placed on ice in ultrasound for 10 min. The solutions of gaboxadol used for intravenous injection was filtered through a 0.45 μm filter.
# Animals were administered with 100.0 mg/kg 5-HTP or saline by oral gavage 30 min. prior to intravenous injection of 2.5 mg/kg gaboxadol into the tail vein […].
# [4] = male, beagle, in vivo, po, 2.5 mg/kg
# [5] = male, beagle, in vivo, po, 10 mg/kg
# [6] = male, beagle, in vivo, po, 50 mg/kg
# [7] = male, beagle, in vivo, po, 150 mg/kg
# [8] = male, Sprague-Dawley, in vivo, po
# [9] = male, Sprague-Dawley, in vivo, po, 0.5 mg/kg
# [10] = male, Sprague-Dawley, in vivo, po, 5 mg/kg
# [11] = male, Sprague-Dawley, in vivo, iv, 2.5 mg/kg
compound,measurement,setting,value
"Oc1noc2c1CCNC2 [gaboxadol, 4,5,6,7-tetrahydroisoxazolo [5,4-c]pyridine-3-ol]","decrease of maximal gaboxadol plasma concentration, Cmax, by tryptophan coadministration","[1]; PO 2.5 mg/kg gaboxadol, presence vs absence of 150 mg/kg tryptophan, p<0.001",57%
same,ke,"[1]; group A, IV 2.5 mg gaboxadol/kg, tryptophan 0 mg/kg",1.02 ± 0.14 h⁻¹
same,ke,"[1]; group B, PO 2.5 mg gaboxadol/kg, tryptophan 0 mg/kg",0.46 ± 0.02 h⁻¹
same,ke,"[1]; group C, PO 2.5 mg gaboxadol/kg, tryptophan 2.5 mg/kg",0.50 ± 0.03 h⁻¹
same,ke,"[1]; group D, PO 2.5 mg gaboxadol/kg, tryptophan 10 mg/kg",0.44 ± 0.03 h⁻¹
same,ke,"[1]; group E, PO 2.5 mg gaboxadol/kg, tryptophan 50 mg/kg",0.50 ± 0.03 h⁻¹
same,ke,"[1]; group F, PO 2.5 mg gaboxadol/kg, tryptophan 150 mg/kg",0.48 ± 0.07 h⁻¹
same,effect of tryptophan coadministration on elimination rate constants (ke) and clearance (CL) of gaboxadol,"[1]; in vivo, po",did not change
same,clearance,"[1]; male, beagle, in vivo, iv, 2.5 mg/kg",7.6 mL/min/kg
same,AUC,"[1]; male, beagle, in vivo, iv, 2.5 mg/kg, AUC",5620 ± 377 ng·h/mL
same,Cmax,"[1]; male, beagle, in vivo, iv, 2.5 mg/kg, Cmax",5490 ± 404 ng/mL
same,AUC,[1]; [4],4760 ± 350 ng·h/mL
same,Cmax,[1]; [4],2473 ± 178 ng/mL
same,Fa (bioavailability),[1]; [4],86.1%
same,Tmax,[1]; [4],21 ± 7.8 min
same,AUC,"[1]; male, beagle, in vivo, po, 2.5 mg/kg, AUC",4720 ± 248 ng·h/mL
same,Cmax,"[1]; male, beagle, in vivo, po, 2.5 mg/kg, Cmax",2500 ng/mL
same,bioavailability,[1]; [4],85.3 ± 5.7%
same,Tmax,"[1]; male, beagle, in vivo, po, 2.5 mg/kg, Tmax",27.6 min
same,CL,[1]; [5],10.8 ± 0.983 mL/min/kg
same,AUC,"[1]; male, beagle, in vivo, po, 10 mg/kg, AUC",4030 ± 339 ng·h/mL
same,Cmax,"[1]; male, beagle, in vivo, po, 10 mg/kg, Cmax",1870 ± 114 ng/mL
same,bioavailability,[1]; [5],75%
same,Tmax,"[1]; male, beagle, in vivo, po, 10 mg/kg, Tmax",32.4 ± 9 min
same,CL,[1]; [6],9.82 ± 0.433 mL/min/kg
same,AUC,"[1]; male, beagle, in vivo, po, 50 mg/kg, AUC",4290 ± 211 ng·h/mL
same,Cmax,"[1]; male, beagle, in vivo, po, 50 mg/kg, Cmax",1660 ± 37 ng/mL
same,bioavailability,[1]; [6],78.2 ± 6.3%
same,Tmax,"[1]; male, beagle, in vivo, po, 50 mg/kg, Tmax",27.6 ± 7.2 min
same,CL,[1]; [7],11.7 ± 2.53 mL/min/kg
same,AUC,"[1]; male, beagle, in vivo, po, 150 mg/kg, AUC",4400 ± 801 ng·h/mL
same,Cmax,"[1]; male, beagle, in vivo, po, 150 mg/kg, Cmax",1420 ng/mL
same,bioavailability,[1]; [7],79.7 ± 14.5%
same,Tmax,"[1]; male, beagle, in vivo, po, 150 mg/kg, Tmax",90 min
same,Tmax ± S.E.M.,[2]; [8],43 min
same,Cmax ± S.E.M.,[2]; [9],294 ± 39.4 ng/mL
same,Cmax,[2]; [9],273 ± 26.7 ng/mL
same,Tmax,[2]; [9],16 min
same,Cmax ± S.E.M.,[2]; [10],1854 ± 509.4 ng/mL
same,Cmax,[2]; [10],2060 ± 153 ng/mL
same,Tmax,[2]; [10],20 min
same,Tmax,[2]; [8],63 min
same,AUC increase compared to the control group,[2]; PO gaboxadol 0.5 mg/kg with 5-HTP 200 mg/kg vs without,540%
same,AUC increase compared to the control group,[2]; PO gaboxadol 5.0 mg/kg with 5-HTP 200 mg/kg vs without,330%
same,"gaboxadol elimination rate constant when 5-HTP was present, relative to control","[2]; PO gaboxadol, 5-HTP 200 mg/kg",about 25%
same,AUC-dose-linearity: AUC of group J relative to group G,"[2]; in vivo, 5 mg/kg",~10 times
same,Ke ± S.E.M.,"[2]; treatment G, PO gaboxadol 0.5 mg/kg, no 5-HTP",0.0164 ± 0.0021 min⁻¹
same,Ke ± S.E.M.,"[2]; treatment H, PO gaboxadol 0.5 mg/kg, 5-HTP 200.0 mg/kg 30 min before",0.0038 ± 0.0004 min⁻¹
same,Ke ± S.E.M.,"[2]; treatment I, PO gaboxadol 5.0 mg/kg, no 5-HTP",0.0199 ± 0.0017 min⁻¹
same,Ke ± S.E.M.,"[2]; treatment J, PO gaboxadol 5.0 mg/kg, 5-HTP 200.0 mg/kg 30 min before",0.0058 ± 0.0008 min⁻¹
same,Cmax ± S.E.M.,[3]; [11],4109 ± 302.6 ng/mL
same,T1/2,[3]; [11],44 min
same,Tmax,[3]; [11],5 min
same,Tmax ± S.E.M.,[3]; [11],5 ± 0.0 min
same,Cmax,"[3]; male, Sprague-Dawley, in vivo, iv, 2.5 mg/kg, Cmax ± S.E.M.",2850 ± 312 ng/mL
same,half-life,"[3]; male, Sprague-Dawley, in vivo, iv, 2.5 mg/kg, T1/2",26 min
same,AUC-dose-linearity: AUC of group G relative to group K,[3]; in vivo,five times
same,AUC of group K relative to group L,"[3]; in vivo, iv, 2.5 mg/kg",~3 times
same,Ke ± S.E.M.,"[3]; treatment K, no 5-HTP",0.0266 ± 0.0008 min⁻¹
same,Ke ± S.E.M.,"[3]; treatment L, 5-HTP 100 mg/kg by oral gavage 30 min prior",0.0181 ± 0.0030 min⁻¹
